# Tests used:
# Klebsiella pneumoniae = experiment: Antibacterial activity against Klebsiella pneumoniae ATCC 700603 assessed as bacterial growth inhibition by CLSI protocol based assay; format: functional
# hERG (KCNH2) = hERG (KCNH2) (Homo sapiens, UniProt Q12809); experiment: Inhibition of human ERG at 100 uM by Ionworks electrophysiology assay; format: toxicity
# Pseudomonas aeruginosa = experiment: Antibacterial activity against Pseudomonas aeruginosa ATCC 27853 assessed as bacterial growth inhibition by CLSI protocol based assay; format: functional
# Escherichia coli [1] = experiment: Antibacterial activity against Escherichia coli W4573 assessed as bacterial growth inhibition by CLSI protocol based assay; format: functional
# Acinetobacter baumannii = experiment: Antibacterial activity against Acinetobacter baumannii NCTC 13420 assessed as bacterial growth inhibition by CLSI protocol based assay; format: functional
# Staphylococcus aureus = experiment: Antibacterial activity against Staphylococcus aureus ATCC 29213 assessed as bacterial growth inhibition by CLSI protocol based assay; format: functional
# Escherichia coli [2] = experiment: Antibacterial activity against Escherichia coli N43 assessed as bacterial growth inhibition by CLSI protocol based assay; format: functional
# [3] = Lipophilicity, logD of the compound by shake flask assay; format: physicochemical; details: octanol/water
# [4] = Cytotoxicity against human HepG2 cells assessed as reduction in cell viability for 24 hrs by Celltiter-Glo assay; format: toxicity, cell-based
# [5] = target: Voltage-gated inwardly rectifying potassium channel KCNH2 (Homo sapiens, UniProt Q12809); experiment: Inhibition of human ERG by Ionworks electrophysiology assay; format: toxicity
# [6] = Inhibition of Escherichia coli topoisomerase 4 assessed as reduction in decatenation
# [7] = Protein binding in human plasma by equilibrium dialysis assay; format: ADME, cell-free; details: read-out: PPB (converted)
# [8] = Plasma protein binding in mouse assessed as free fraction by equilibrium dialysis assay; format: ADME, cell-free
# [9] = Intrinsic clearance in human liver microsomes in presence of NADPH and measured upto 45 mins; format: ADME, Microsome; details: read-out: CLH
# [10] = Kinetic solubility of compound; format: physicochemical; details: read-out: Kinetic_solubility
# [11] = Intrinsic clearance in mouse liver microsomes in presence of NADPH and measured upto 45 mins; format: ADME, Microsome; details: read-out: CLH
# DNA gyrase = DNA gyrase (Escherichia coli, UniProt P0AES4+P0AES6); experiment: Inhibition of Escherichia coli DNA gyrase supercoiling activity; format: protein-complex assay
# Escherichia coli [12] = experiment: Resistance development in Escherichia coli ATCC25922 assessed as spontaneous resistance frequency at 4 times MIC by resistance development assay; format: functional
# [13] = target: DNA topoisomerase 2-alpha (Homo sapiens, UniProt P11388); experiment: Inhibition of human topoisomerase 2 assessed as reduction in decatenation
# [14] = Protein binding in mouse plasma by equilibrium dialysis assay; format: ADME, cell-free; details: read-out: PPB (converted)
# Escherichia coli [15] = experiment: Antibacterial activity against Escherichia coli ATCC25922 assessed as bacterial growth inhibition by CLSI protocol based assay; format: functional
# Voltage-gated inwardly rectifying potassium channel KCNH2, sequence (Q12809 whole entry): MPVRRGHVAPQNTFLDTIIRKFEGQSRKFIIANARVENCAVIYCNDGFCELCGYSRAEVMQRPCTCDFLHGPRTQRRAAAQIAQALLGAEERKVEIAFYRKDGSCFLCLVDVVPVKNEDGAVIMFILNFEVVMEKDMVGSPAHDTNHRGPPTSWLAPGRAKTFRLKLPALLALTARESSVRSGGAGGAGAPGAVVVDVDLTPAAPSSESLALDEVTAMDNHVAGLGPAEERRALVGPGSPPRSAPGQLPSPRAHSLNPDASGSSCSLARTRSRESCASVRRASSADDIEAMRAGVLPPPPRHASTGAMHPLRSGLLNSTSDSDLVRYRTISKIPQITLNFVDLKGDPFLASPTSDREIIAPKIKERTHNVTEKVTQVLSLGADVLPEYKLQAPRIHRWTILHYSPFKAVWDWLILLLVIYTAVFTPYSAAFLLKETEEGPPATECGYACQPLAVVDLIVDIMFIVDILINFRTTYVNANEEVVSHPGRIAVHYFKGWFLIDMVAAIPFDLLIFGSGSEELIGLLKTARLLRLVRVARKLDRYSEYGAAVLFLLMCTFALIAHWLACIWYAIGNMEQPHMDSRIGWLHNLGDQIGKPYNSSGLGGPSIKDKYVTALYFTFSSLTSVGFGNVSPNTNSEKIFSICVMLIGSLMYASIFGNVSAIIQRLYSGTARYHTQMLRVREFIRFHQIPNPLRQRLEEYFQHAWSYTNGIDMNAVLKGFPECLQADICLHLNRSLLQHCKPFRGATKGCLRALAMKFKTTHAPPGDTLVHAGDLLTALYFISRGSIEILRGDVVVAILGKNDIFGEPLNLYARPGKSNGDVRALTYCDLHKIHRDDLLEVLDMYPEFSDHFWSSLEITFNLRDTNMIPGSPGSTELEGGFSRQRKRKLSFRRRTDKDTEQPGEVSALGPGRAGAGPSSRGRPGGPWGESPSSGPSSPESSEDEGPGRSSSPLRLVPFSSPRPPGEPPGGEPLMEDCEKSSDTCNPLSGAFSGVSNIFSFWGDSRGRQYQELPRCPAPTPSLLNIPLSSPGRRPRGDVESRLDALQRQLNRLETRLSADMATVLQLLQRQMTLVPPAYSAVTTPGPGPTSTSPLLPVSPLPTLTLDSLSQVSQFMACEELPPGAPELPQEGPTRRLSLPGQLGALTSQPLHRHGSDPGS
# hERG (KCNH2), sequence (Q12809 whole entry): as above
# DNA topoisomerase 2-alpha, sequence (P11388 whole entry): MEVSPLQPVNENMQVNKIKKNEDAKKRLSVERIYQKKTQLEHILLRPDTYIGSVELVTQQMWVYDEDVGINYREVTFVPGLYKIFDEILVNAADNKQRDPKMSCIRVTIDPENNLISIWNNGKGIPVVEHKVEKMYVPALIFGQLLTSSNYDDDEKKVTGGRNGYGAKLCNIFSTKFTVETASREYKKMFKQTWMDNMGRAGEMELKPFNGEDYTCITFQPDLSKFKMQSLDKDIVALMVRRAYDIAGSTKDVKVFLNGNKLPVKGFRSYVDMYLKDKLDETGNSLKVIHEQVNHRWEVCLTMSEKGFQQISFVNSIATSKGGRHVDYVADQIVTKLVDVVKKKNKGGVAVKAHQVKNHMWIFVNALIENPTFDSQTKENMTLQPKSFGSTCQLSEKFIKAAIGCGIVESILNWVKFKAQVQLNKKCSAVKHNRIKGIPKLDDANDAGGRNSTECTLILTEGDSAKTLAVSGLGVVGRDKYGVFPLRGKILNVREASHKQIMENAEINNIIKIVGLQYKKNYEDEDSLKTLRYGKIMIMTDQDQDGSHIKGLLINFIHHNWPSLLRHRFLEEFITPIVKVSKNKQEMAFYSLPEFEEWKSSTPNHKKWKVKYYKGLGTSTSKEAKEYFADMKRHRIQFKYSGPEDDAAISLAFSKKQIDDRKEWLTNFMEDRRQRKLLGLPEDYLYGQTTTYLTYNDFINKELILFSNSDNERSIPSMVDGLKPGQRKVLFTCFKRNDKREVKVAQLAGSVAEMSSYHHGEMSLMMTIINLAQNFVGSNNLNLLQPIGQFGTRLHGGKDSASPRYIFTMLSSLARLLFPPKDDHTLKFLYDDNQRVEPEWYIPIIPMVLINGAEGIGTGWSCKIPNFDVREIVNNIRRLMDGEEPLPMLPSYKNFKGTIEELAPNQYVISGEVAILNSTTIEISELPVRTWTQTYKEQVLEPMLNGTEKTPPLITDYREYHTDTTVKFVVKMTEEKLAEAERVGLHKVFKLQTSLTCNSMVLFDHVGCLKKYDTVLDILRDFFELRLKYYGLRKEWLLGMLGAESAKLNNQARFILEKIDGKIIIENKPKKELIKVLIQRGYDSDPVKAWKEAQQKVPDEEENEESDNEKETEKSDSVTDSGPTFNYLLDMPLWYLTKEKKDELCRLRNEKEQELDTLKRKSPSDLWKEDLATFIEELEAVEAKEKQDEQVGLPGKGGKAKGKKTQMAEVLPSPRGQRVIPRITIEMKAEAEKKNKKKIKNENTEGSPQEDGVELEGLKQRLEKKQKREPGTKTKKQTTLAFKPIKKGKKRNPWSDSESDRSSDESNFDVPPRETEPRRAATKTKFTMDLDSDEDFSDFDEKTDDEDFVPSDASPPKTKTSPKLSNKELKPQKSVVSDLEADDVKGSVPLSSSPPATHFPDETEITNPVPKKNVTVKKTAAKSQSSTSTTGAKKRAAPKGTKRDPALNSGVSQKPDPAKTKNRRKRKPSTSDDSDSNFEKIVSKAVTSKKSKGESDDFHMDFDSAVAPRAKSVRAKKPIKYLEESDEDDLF
Compound,MIC (Klebsiella pneumoniae) [µg/mL],MIC (Pseudomonas aeruginosa) [µg/mL],MIC (Escherichia coli [1]) [µg/mL],MIC (Acinetobacter baumannii) [µg/mL],MIC (Staphylococcus aureus) [µg/mL],MIC (Escherichia coli [2]) [µg/mL],logD [3],IC50 at 24 h [4] [µg/mL],IC50 [5] [µM],other results
O=C1COc2ccc(N3C(=O)O[C@H]4C[C@@H](NCCn5c(=O)ccc6ccc(C(=O)O)cc65)CC[C@@H]43)nc2N1,> 64,> 64,> 64,> 64,> 64,16,< 0.2,–,–,inhibition at 100 µM (hERG (KCNH2)): 33%
COc1ccc2ccc(=O)n(CCN[C@H]3CC[C@H]4[C@H](C3)OC(=O)N4c3ccc4c(n3)NC(=O)CO4)c2c1,8,4,0.25,0.06,0.008,0.03,2.25,> 64,–,inhibition at 100 µM (hERG (KCNH2)): 85%
COc1ccc2ccc(=O)n(CCN[C@H]3CC[C@H]4[C@H](C3)OC(=O)N4c3ncc4c(n3)NC(=O)CO4)c2n1,8,8,0.5,1,–,0.015,0.9,> 128,> 32,–
O=C1COc2ccc(N3C(=O)O[C@H]4C[C@@H](NCCCn5c(=O)cnc6ccc(F)cc65)CC[C@@H]43)nc2N1,2,1,0.12,0.12,0.25,0.25,1.26,> 128,13,–
O=C(O)c1cn(C2CC2)c2cc(N3CCNCC3)c(F)cc2c1=O [CIPROFLOXACIN],–,–,–,–,–,–,–,> 128,–,IC50 [6]: 0.03 µM
COc1ccc2ccc(=O)n(CCN[C@@H]3CC[C@@H]4[C@@H](C3)OC(=O)N4c3ccc4c(n3)NC(=O)CO4)c2n1,1,0.25,0.03,0.06,0.03,< 0.004,1.8,64,10,fraction unbound [7]: 0.947
COc1cnc2ccc(=O)n(CCN[C@H]3CC[C@H]4[C@H](C3)OC(=O)N4c3ccc4c(n3)NC(=O)CO4)c2n1,2,1,0.12,0.12,0.015,0.004,1.37,> 128,9,–
N#Cc1ccc2c(ccc(=O)n2CCN[C@H]2CC[C@H]3[C@H](C2)OC(=O)N3c2ccc3c(n2)NC(=O)CO3)c1,> 64,> 64,4,8,4,0.06,1.69,–,–,inhibition at 100 µM (hERG (KCNH2)): 56%
COc1ccc2ccc(=O)n(CCN[C@H]3CC[C@H]4[C@H](C3)OC(=O)N4c3ccc4c(n3)NC(=O)C(C)(C)O4)c2n1,64,32,2,1,0.03,0.03,2.84,–,–,–
COc1ccc2ccc(=O)n(CCCN[C@H]3CC[C@H]4[C@H](C3)OC(=O)N4c3ccc4c(n3)NC(=O)CO4)c2n1,8,4,0.25,0.06,0.015,≤ 0.002,1.61,40,–,inhibition at 100 µM (hERG (KCNH2)): 97%
N#Cc1cnc2ccc(=O)n(CCCN[C@H]3CC[C@H]4[C@H](C3)OC(=O)N4c3ccc4c(n3)NC(=O)CO4)c2c1,8,2,0.25,2,0.5,0.015,0.5,> 32,> 100,fraction unbound [8]: > 0.3; microsomal CLint [9]: < 3 µL/min/mg; solubility kinetic [10]: 86 µM; microsomal CLint [11]: < 3 µL/min/mg; IC50 (DNA gyrase): 0.34 µM; IC50 [6]: 4.24 µM; Activity (Escherichia coli [12]): 7.8 10^-8No_unit; IC50 [13]: > 100 µM
COc1ccc2ncc(=O)n(CCN[C@H]3CC[C@H]4[C@H](C3)OC(=O)N4c3ccc4c(n3)NC(=O)CO4)c2n1,4,4,0.25,0.06,0.015,≤ 0.008,1.6,> 64,7,–
COc1cc2c(ccc(=O)n2CCN[C@H]2CC[C@H]3[C@H](C2)OC(=O)N3c2ccc3c(n2)NC(=O)CO3)cn1,32,16,2,0.5,0.5,0.06,1.69,–,–,inhibition at 100 µM (hERG (KCNH2)): 83%
COc1cnc2ccc(=O)n(CCCN[C@H]3CC[C@H]4[C@H](C3)OC(=O)N4c3ccc4c(n3)NC(=O)CO4)c2c1,8,2,0.25,0.5,0.06,0.008,0.94,> 64,> 100,fraction unbound [8]: > 0.3; microsomal CLint [9]: < 3 µL/min/mg; solubility kinetic [10]: > 100 µM; microsomal CLint [11]: 9 µL/min/mg; IC50 (DNA gyrase): 0.46 µM; IC50 [6]: 0.015 µM; Activity (Escherichia coli [12]): 3.2 10^-7No_unit; IC50 [13]: > 100 µM
N#Cc1cnc2ccc(=O)n(CCN[C@H]3CC[C@H]4[C@H](C3)OC(=O)N4c3ccc4c(n3)NC(=O)CS4)c2c1,16,2,0.5,0.12,0.03,0.004,1.42,> 128,20,–
N#Cc1cnc2ccc(=O)n(CCN[C@H]3CC[C@H]4[C@H](C3)OC(=O)N4c3ccc4c(n3)NC(=O)CO4)c2c1,8,2,0.25,1,0.06,0.004,0.79,> 128,> 100,fraction unbound [8]: > 0.3; microsomal CLint [9]: < 3 µL/min/mg; microsomal CLint [11]: 55 µL/min/mg; IC50 (DNA gyrase): 0.09 µM; IC50 [6]: 0.017 µM; IC50 [13]: > 100 µM
COc1cnc2ccc(=O)n(CCN[C@H]3CC[C@H]4[C@H](C3)OC(=O)N4c3ccc4c(n3)NC(=O)CO4)c2c1,8,2,0.25,1,0.03,≤ 0.008,1.36,> 128,32,fraction unbound [8]: 0.25; microsomal CLint [9]: 35 µL/min/mg; solubility kinetic [10]: 94 µM; microsomal CLint [11]: 62 µL/min/mg; IC50 (DNA gyrase): 0.22 µM; IC50 [6]: 0.1 µM; IC50 [13]: > 100 µM
N#Cc1ccc2ccc(=O)n(CCCN[C@H]3CC[C@H]4[C@H](C3)OC(=O)N4c3ccc4c(n3)NC(=O)CO4)c2c1,2,1,0.06,0.12,0.06,≤ 0.016,1.03,55,7,–
COc1ncc2ccc(=O)n(CCN[C@H]3CC[C@H]4[C@H](C3)OC(=O)N4c3ccc4c(n3)NC(=O)CO4)c2n1,> 64,> 64,32,3.2,2,1,1.79,–,–,–
COc1ccc2ccc(=O)n(CCN[C@@H]3CC[C@@H]4[C@H](C3)OC(=O)N4c3ccc4c(n3)NC(=O)CO4)c2n1,8,4,0.25,1,0.008,0.004,2,> 32,5,fraction unbound [14]: 0.873; fraction unbound [7]: 0.965
O=C1COc2ccc(N3C(=O)O[C@H]4C[C@@H](NCCn5c(=O)cnc6ccc(F)cc65)CC[C@@H]43)nc2N1,8,4,0.25,0.03,0.015,≤ 0.002,1.58,> 64,–,inhibition at 100 µM (hERG (KCNH2)): 33%
COc1ccc2ccc(=O)n(CCN[C@H]3CC[C@H]4[C@H](C3)OC(=O)N4c3ccc4c(n3)NC(=O)CS4)c2n1,2,1,0.12,0.015,≤ 0.002,≤ 0.002,2.58,35,4,fraction unbound [8]: 0.09; microsomal CLint [9]: 267 µL/min/mg; MIC (Escherichia coli [15]): 0.06 µg/mL; solubility kinetic [10]: 54 µM; microsomal CLint [11]: > 277 µL/min/mg; IC50 (DNA gyrase): 0.105 µM; IC50 [6]: 0.024 µM; IC50 [13]: > 100 µM
COc1ccc2ccc(=O)n(CCN[C@H]3CC[C@H]4[C@@H](C3)OC(=O)N4c3ccc4c(n3)NC(=O)CO4)c2n1,8,2,0.5,0.12,0.03,< 0.008,2,> 8,3,fraction unbound [14]: 0.878; fraction unbound [7]: 0.919

# Reference: ChEMBL document CHEMBL5143607, “Discovery and structure-activity relationships of a novel oxazolidinone class of bacterial type II topoisomerase inhibitors” (Bioorg Med Chem Lett, 2022)
